We go through seven molecules from patent publication US4276375A, “Determination of serine proteases” (AB Kabi, priority 1976, dated 1981).

By Km is commonly meant the concentration of substrate that gives half-maximal velocity.

Common to all, as to format: biochemical
Data set [1] addresses T1, factor Xa (Bos taurus, UniProt P00743).
T1 construct: purchased Diagnostic Reagents (product 'Diagen', 6.4 Denson U)
Description: Relative activity (rate of substrate hydrolysis, Δ OD/min at 405 nm). To be noted: S-2222 = 100, 250 μl of 2 mmole/l substrate in 2500 μl, Tris buffer pH 8.3, 37° C. The procedure:
(§1) Buffer Tris (tris(hydroxymethyl)aminomethane)
(§2) 0.05 mole/l, pH = 8.3, I = 0.25 (NaCl)
(§3) Enzyme Diagen (6.4 Denson U) (Diagnostic Reagents)
(§4) . 1 ampule is dissolved in 2 ml of water.
(§5) The substrate is dissolved in water to 2 mmole/l.
Substrate, +37° C.250 μl
(§6) Mix and read change of absorbance (Δ OD/min) at […]

The target in data set [2] is T1, factor Xa. Description: Determination of Km and Vmax (Lineweaver-Burk, hydrolysis of chromogenic substrate read at 405 nm). To be noted: value is Vmax multiplied by 10^8; Tris buffer pH 8.3, I 0.25, 37° C., enzyme Diagen. The procedure:
(§7) Km and Vmax are obtained by means of the Lineweaver-Burk equation: [formula] Enzyme and substrate are mixed in a buffer solution and the rate of hydrolysis is measured spectrophotometrically. The substrate concentration (So) is varied while the enyzme concentration is kept constant. The reciprocal velocity l/vo is then plotted against the reciprocal substrate concentration l/So, and Km and Vmax are estimated (Table 1) from the obtained Lineweaver-Burk diagram.
as §1, §2, §3, §4, §5, §6

Substrate in data set [3]: CCOC(=O)CC[C@H](NC(=O)[C@@H](NC(=O)c1ccccc1)[C@@H](C)CC)C(=O)NCC(=O)N[C@@H](CCCNC(=N)N)C(=O)Nc1ccc([N+](=O)[O-])cc1
The data set is described as above. The following applies: other: value is Km multiplied by 10^4, Tris buffer 0.05 mole/l, pH 8.3, I 0.25 (NaCl), 37° C., enzyme Diagen, 37.0 °C. The method, then:
as §7, §1, §2, §3, §4, §5, §6

Substrate in data set [4]: CC[C@H](C)[C@H](NC(=O)c1ccccc1)C(=O)N[C@@H](CCC(=O)O)C(=O)NCC(=O)N[C@@H](CCCN=C(N)N)C(=O)Nc1ccc([N+](=O)[O-])cc1
The description is as above. To be noted: other: stated in the text; pH 8.3. The procedure: as §7, §1, §2, §3, §4, §5, §6

Substrate in data set [5]: CC[C@H](C)[C@H](NC(=O)c1ccccc1)C(=O)N[C@@H](CCC(=O)N1CCCCC1)C(=O)NCC(=O)N[C@@H](CCCNC(=N)N)C(=O)Nc1ccc([N+](=O)[O-])cc1
The description is as above. To be noted: other: value is Km multiplied by 10^4, Tris buffer 0.05 mole/l, pH 8.3, I 0.25 (NaCl), 37° C., enzyme Diagen, 37.0 °C. The procedure:
as §7, §1, §2, §3, §4, §5, §6

Substrate in data set [6]: CC[C@H](C)[C@H](NC(=O)c1ccccc1)C(=O)N[C@@H](CCC(=O)OC)C(=O)NCC(=O)N[C@@H](CCCNC(=N)N)C(=O)Nc1ccc([N+](=O)[O-])cc1
The description is as above. To be noted: other: value is Km multiplied by 10^4, Tris buffer 0.05 mole/l, pH 8.3, I 0.25 (NaCl), 37° C., enzyme Diagen, 37.0 °C. The method, then:
as §7, §1, §2, §3, §4, §5, §6

Substrate in data set [7]: CC[C@H](C)[C@H](NC(=O)c1ccccc1)C(=O)N[C@@H](CCC(=O)OC(C)C)C(=O)NCC(=O)N[C@@H](CCCNC(=N)N)C(=O)Nc1ccc([N+](=O)[O-])cc1
Described as above. The following applies: other: value is Km multiplied by 10^4, Tris buffer 0.05 mole/l, pH 8.3, I 0.25 (NaCl), 37° C., enzyme Diagen, 37.0 °C. The method, then: as §7, §1, §2, §3, §4, §5, §6

Substrate in data set [8]: CC[C@H](C)[C@H](NC(=O)c1ccccc1)C(=O)N[C@@H](CCC(=O)NC(C)C)C(=O)NCC(=O)N[C@@H](CCCNC(=N)N)C(=O)Nc1ccc([N+](=O)[O-])cc1
Described as above. To be noted: other: value is Km multiplied by 10^4, Tris buffer 0.05 mole/l, pH 8.3, I 0.25 (NaCl), 37° C., enzyme Diagen, 37.0 °C. The method, then: as §7, §1, §2, §3, §4, §5, §6

Where a name gives a salt, the structure may show the parent alone. Residues, ends and D or L forms follow the SMILES beside them. *: point of attachment. pNA = O=[N+]([O-])c1ccc(N*)cc1; Piperidide = C1CCN(*)CC1; Bz = O=C(c1ccccc1)*; NHiPr = CC(C)N*; OiPr = CC(C)O*

For `CC[C@H](C)[C@H](NC(=O)c1ccccc1)C(=O)N[C@@H](CCC(=O)N1CCCCC1)C(=O)NCC(=O)N[C@@H](CCCNC(=N)N)C(=O)Nc1ccc([N+](=O)[O-])cc1` [Ex. 7] (Bz-IE(Piperidide)GR-pNA), at factor Xa [1], the Relative activity amounted to 300. Besides, the “Vmax · 10^8” value at factor Xa [2] was 8.6 mol/min · U.

On to `CC[C@H](C)[C@H](NC(=O)c1ccccc1)C(=O)N[C@@H](CCC(=O)NC(C)C)C(=O)NCC(=O)N[C@@H](CCCNC(=N)N)C(=O)Nc1ccc([N+](=O)[O-])cc1` [Ex. 6] (Bz-IE(NHiPr)GR-pNA), for which the Relative activity at factor Xa [1] came to 340. For the same molecule, the “Vmax · 10^8” value at factor Xa [2] was 20.0 mol/min · U.

Molecule `CCOC(=O)CC[C@H](NC(=O)[C@@H](NC(=O)c1ccccc1)[C@@H](C)CC)C(=O)NCC(=O)N[C@@H](CCCNC(=N)N)C(=O)Nc1ccc([N+](=O)[O-])cc1` [Ex. 2, Bz-Ile-Glu(OEt)-Gly-Arg-pNA.HCl] (Bz-IE(OEt)GR-pNA) showed a Relative activity on factor Xa [1] of 200. On factor Xa [2], the “Vmax · 10^8” value amounted to 7.5 mol/min · U.

In turn, `CC[C@H](C)[C@H](NC(=O)c1ccccc1)C(=O)N[C@@H](CCC(=O)O)C(=O)NCC(=O)N[C@@H](CCCNC(=N)N)C(=O)Nc1ccc([N+](=O)[O-])cc1` [Example S-2222, Benzoyl-Ile-Glu-Gly-Arg-p-nitroanilide, reference compound] (Bz-IEGR-pNA) gave a Relative activity at factor Xa [1] of 100. Besides, the “Vmax · 10^8” value at factor Xa [2] stood at 8.6 mol/min · U.

In turn, `CC[C@H](C)[C@H](NC(=O)c1ccccc1)C(=O)N[C@@H](CCC(=O)OC(C)C)C(=O)NCC(=O)N[C@@H](CCCNC(=N)N)C(=O)Nc1ccc([N+](=O)[O-])cc1` [Ex. 3, Bz-Ile-Glu(OisoPr)-Gly-Arg-pNA.HCl] (Bz-IE(OiPr)GR-pNA) displayed a Relative activity at factor Xa [1] of 220. In addition, the “Vmax · 10^8” value on factor Xa [2] is reported as 7.1 mol/min · U.

`CC[C@H](C)[C@H](NC(=O)c1ccccc1)C(=O)N[C@@H](CCC(=O)OC)C(=O)NCC(=O)N[C@@H](CCCNC(=N)N)C(=O)Nc1ccc([N+](=O)[O-])cc1` [Ex. 1, Bz-Ile-Glu(OMe)-Gly-Arg-pNA.HCl] (Bz-IE(OMe)GR-pNA) showed a Relative activity at factor Xa [1] of 230. On factor Xa [2], the “Vmax · 10^8” value is 8.1 mol/min · U.

B1: factor Xa (Bos taurus) (protein)
chain 1: IVGGRDCAEGECPWQALLVNEENEGFCGGTILNEFYVLTAAHCLHQAKRFTVRVGDRNTEQEEGNEMAHEVEMTVKHSRFVKETYDFDIAVLRLKTPIRFRRNVAPACLPEKDWAEATLMTQKTGIVSGFGRTHEKGRLSSTLKMLEVPYVDRSTCKLSSSFTITPNMFCAGYDTQPEDACQGDSGGPHVTRFKDTYFVTGIVSWGEGCARKGKFGVYTKVSNFLKWIDKIMKARAGAAGSRGHSEAPATWTVPPPLPL
chain 2: ANSFLEEVKQGNLERECLEEACSLEEAREVFEDAEQTDEFWSKYKDGDQCEGHPCLNQGHCKDGIGDYTCTCAEGFEGKNCEFSTREICSLDNGGCDQFCREERSEVRCSCAHGYVLGDDSKSCVSTERFPCGKFTQGRS
notes: purchased Diagnostic Reagents (product 'Diagen', 6.4 Denson U)
As to B1, the Km amounted to 290 µM in data set [3]; 830 µM in data set [4]; 170 µM in data set [5]; 260 µM in data set [6]; 210 µM in data set [7]; 560 µM in data set [8].
